One data set concerns HIV-IIIb. The data set can be described thus: Test A: Antiviral Assay in MT4 Cells. The class given is cell-based, HIV-1. The note with it: Human immunodeficiency virus 1, IIIB, MT4, 120 h; for inhibition at 0.2 µM: read-out: % inhibition at 0.2 μM; for inhibition at 2 µM: read-out: % inhibition at 2 μM. The procedure:
Test A: Antiviral Assay in MT4 Cells
MT-4 cells were next mixed with HIV-IIIb at an m.o.i of 0.003 for 1 hour, after which time 35 μL of virus/cell mixture (2000 cells) was immediately added to each well containing 40 μL of diluted compound. The plates were then incubated at 37° C. for 5 days. […] Cell lysis was carried out by incubating at room temperature for 10 min and then chemiluminescence was read.

The nature of data set [1]: Test B: Cytotoxicity Assay. Type of data set: cell-based. The note with it: human, uninfected MT-4 cells, same protocol as Test A. Put shortly:
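Uninfected MT-4 cells (2000 per well) incubated with diluted compound at 37° C. for 5 days, following the antiviral protocol without HIV-IIIb.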

Structures are written as SMILES.

As to `Cn1cnc(S(=O)(=O)Nc2nn(C)c3c(-c4ccc(C#CC(C)(C)O)nc4[C@H](Cc4cc(F)cc(F)c4)NC(=O)Cn4nc(C(F)(F)F)c5c4C(F)(F)[C@@H]4C[C@H]54)cccc23)c1` [Compound 47, 2-((3bS,4aR)-5,5-difluoro-3-(trifluoromethyl)-3b,4,4a,5-tetrahydro-1H-cyclopropa[3,4]cyclopenta[1,2-c]pyrazol-1-yl)-N—((S)-2-(3,5-difluorophenyl)-1-(6-(3-hydroxy-3-methylbut-1-yn-1-yl)-3-(1-methyl-3-(1-methyl-1H-imidazole-4-sulfonamido)-1H-indazol-7-yl)pyridin-2-yl)ethyl)acetamide], in the data set with HIV-IIIb, the inhibition at 0.2 µM turned out to be 100% and the inhibition at 2 µM is 100%. In data set [1], this compound had a half-maximal cytotoxic concentration (CC50) at 5 days of 21.4 µM.
For the compound `Cc1c(-c2ccc(C#CC(C)(C)O)nc2[C@H](Cc2cc(F)cc(F)c2)NC(=O)Cn2nc(C(F)F)c3c2C(F)(F)[C@@H]2C[C@H]32)ccc2n[nH]c(=O)n12` [Compound 38, 2-((3b-S,4aR)-3-(difluoromethyl)-5,5-difluoro-3b,4,4a,5-tetrahydro-1H-cyclopropa[3,4]cyclopenta[1,2-c]pyrazol-1-yl)-N—((S)-2-(3,5-difluorophenyl)-1-(6-(3-hydroxy-3-methylbut-1-yn-1-yl)-3-(5-methyl-3-oxo-2,3-dihydro-[1,2,4]triazolo[4,3-a]pyridin-6-yl)pyridin-2-yl)ethyl)acetamide], in the data set with HIV-IIIb, the inhibition at 0.2 µM is 96% and the inhibition at 2 µM was 96%. Moreover, the half-maximal cytotoxic concentration (CC50) at 5 days in data set [1] stood at 13.5 µM.
`Cn1nc(N)c2cccc(-c3cnc(C#CC(C)(C)O)nc3[C@H](Cc3cc(F)cc(F)c3)NC(=O)Cn3nc(C(F)F)c4c3C(F)(F)CCC4(F)F)c21` [Compound 37F, (S)—N-(1-(5-(3-amino-1-methyl-1H-indazol-7-yl)-2-(3-hydroxy-3-methylbut-1-yn-1-yl)pyrimidin-4-yl)-2-(3,5-difluorophenyl)ethyl)-2-(3-(difluoromethyl)-4,4,7,7-tetrafluoro-4,5,6,7-tetrahydro-1H-indazol-1-yl)acetamide]: in the data set on HIV-IIIb, the inhibition at 0.2 µM worked out at 90% and the inhibition at 2 µM is 90%. The same compound came in with a 50% cytotoxic concentration (CC50) at 5 days in data set [1] of 6.35 µM.
Take `Cn1nc(NCC(F)F)c2cccc(-c3ccc(C#CC(C)(C)O)nc3[C@H](Cc3cc(F)cc(F)c3)NC(=O)Cn3nc(C(F)F)c4c3C(F)(F)[C@@H]3C[C@H]43)c21` [Compound 74D, N—((S)-1-(3-(3-((2,2-difluoroethyl)amino)-1-methyl-1H-indazol-7-yl)-6-(3-hydroxy-3-methylbut-1-yn-1-yl)pyridin-2-yl)-2-(3,5-difluorophenyl)ethyl)-2-((3b-S,4aR)-3-(difluoromethyl)-5,5-difluoro-3b,4,4a,5-tetrahydro-1H-cyclopropa[3,4]cyclopenta[1,2-c]pyrazol-1-yl)acetamide]: in the data set with HIV-IIIb, the inhibition at 0.2 µM worked out at 99% and the inhibition at 2 µM turned out to be 99%. Further, the CC50 at 5 days in data set [1] is 6.91 µM.
On to `Cn1nc(NS(C)(=O)=O)c2c(Cl)ccc(-c3ccc(C#CC(C)(C)O)nc3[C@H](Cc3cc(F)cc(F)c3)NC(=O)Cn3nc(N)c4c3C(F)(F)[C@@H]3C[C@H]43)c21` [Compound 148B, 2-((3bS,4aR)-3-amino-5,5-difluoro-3b,4,4a,5-tetrahydro-1H-cyclopropa[3,4]cyclopenta[1,2-c]pyrazol-1-yl)-N—((S)-1-(3-(4-chloro-1-methyl-3-(methylsulfonamido)-1H-indazol-7-yl)-6-(3-hydroxy-3-methylbut-1-yn-1-yl)pyridin-2-yl)-2-(3,5-difluorophenyl)ethyl)acetamide], for which, in the data set with HIV-IIIb, the inhibition at 0.2 µM was 83% and the inhibition at 2 µM is 83%. The compound also registered a CC50 at 5 days in data set [1] of 23.3 µM.
Turning to `Cn1nc(NS(C)(=O)=O)c2c(Cl)ccc(-c3ccc(C#CCOCCO)nc3[C@H](Cc3cc(F)cc(F)c3)NC(=O)Cn3nc(C(F)(F)F)c4c3C(F)(F)[C@@H]3C[C@H]43)c21` [Compound 153, N—((S)-1-(3-(4-chloro-1-methyl-3-(methylsulfonamido)-1H-indazol-7-yl)-6-(3-(2-hydroxyethoxy)prop-1-yn-1-yl)pyridin-2-yl)-2-(3,5-difluorophenyl)ethyl)-2-((3b-S,4aR)-5,5-difluoro-3-(trifluoromethyl)-3b,4,4a,5-tetrahydro-1H-cyclopropa[3,4]cyclopenta[1,2-c]pyrazol-1-yl)acetamide], in the data set with HIV-IIIb, the inhibition at 0.2 µM stood at 98% and the inhibition at 2 µM stood at 98%. In data set [1], this compound came in with a 50% cytotoxic concentration (CC50) at 5 days of 18.6 µM.
`Cn1nc(NS(C)(=O)=O)c2c(Cl)ccc(-c3cc(-c4cccnc4)cnc3[C@H](Cc3cc(F)cc(F)c3)NC(=O)Cn3nc(C(F)F)c4c3C(F)(F)[C@@H]3C[C@H]43)c21` [Compound 185C, N—((S)-1-(5-(4-chloro-1-methyl-3-(methylsulfonamido)-1H-indazol-7-yl)-[3,3′-bipyridin]-6-yl)-2-(3,5-difluorophenyl)ethyl)-2-((3bS,4aR)-3-(difluoromethyl)-5,5-difluoro-3b,4,4a,5-tetrahydro-1H-cyclopropa[3,4]cyclopenta[1,2-c]pyrazol-1-yl)acetamide]: in the data set on HIV-IIIb, the inhibition at 0.2 µM is 89% and the inhibition at 2 µM amounted to 89%. In addition, the CC50 at 5 days in data set [1] is 18.2 µM.
In the case of `Cn1nc(NS(C)(=O)=O)c2c(Cl)ccc(-c3ccc(C#CC(C)(C)O)nc3[C@H](Cc3cc(F)cc(F)c3)NC(=O)Cn3nc(I)c4c3C(F)(F)[C@@H]3C[C@H]43)c21` [Compound 160, N—((S)-1-(3-(4-chloro-1-methyl-3-(methylsulfonamido)-1H-indazol-7-yl)-6-(3-hydroxy-3-methylbut-1-yn-1-yl)pyridin-2-yl)-2-(3,5-difluorophenyl)ethyl)-2-((3bS,4aR)-5,5-difluoro-3-iodo-3b,4,4a,5-tetrahydro-1H-cyclopropa[3,4]cyclopenta[1,2-c]pyrazol-1-yl)acetamide], in the data set on HIV-IIIb, the inhibition at 0.2 µM came out at 100% and the inhibition at 2 µM was 100%. The compound further had a CC50 at 5 days in data set [1] of 20.5 µM.
`CC(C)(O)C#Cc1ccc(-c2ccc(Cl)n3c(N)nnc23)c([C@H](Cc2cc(F)cc(F)c2)NC(=O)Cn2nc(C(F)(F)F)c3c2C(F)(F)[C@@H]2C[C@H]32)n1` [Compound 111, N—((S)-1-(3-(3-amino-5-chloro-[1,2,4]triazolo[4,3-a]pyridin-8-yl)-6-(3-hydroxy-3-methylbut-1-yn-1-yl)pyridin-2-yl)-2-(3,5-difluorophenyl)ethyl)-2-((3b-S,4aR)-5,5-difluoro-3-(trifluoromethyl)-3b,4,4a,5-tetrahydro-1H-cyclopropa[3,4]cyclopenta[1,2-c]pyrazol-1-yl)acetamide]: in the data set on HIV-IIIb, the inhibition at 0.2 µM was found to be 89% and the inhibition at 2 µM was 90%. Further, in data set [1], the CC50 at 5 days is 9.59 µM.
For `CC(C)(O)C#Cc1ccc(-c2cccn3c(NCC(F)(F)F)nnc23)c([C@H](Cc2cc(F)cc(F)c2)NC(=O)Cn2nc(C(F)F)c3c2C(F)(F)[C@@H]2C[C@H]32)n1` [Compound 117F, 2-((3b-S,4aR)-3-(difluoromethyl)-5,5-difluoro-3b,4,4a,5-tetrahydro-1H-cyclopropa[3,4]cyclopenta[1,2-c]pyrazol-1-yl)-N—((S)-2-(3,5-difluorophenyl)-1-(6-(3-hydroxy-3-methylbut-1-yn-1-yl)-3-(3-((2,2,2-trifluoroethyl)amino)-[1,2,4]triazolo[4,3-a]pyridin-8-yl)pyridin-2-yl)ethyl)acetamide] the same measures were 93%, 100% and 27.8 µM.
Turning to `Cc1ccc(-c2ccc(C#CC(C)(C)C)nc2[C@H](Cc2cc(F)cc(F)c2)NC(=O)Cn2nc(C(F)F)c3c2C(F)(F)[C@@H]2C[C@H]32)c2nnc(NS(C)(=O)=O)n12` [Compound 133, 2-((3bS,4aR)-3-(difluoromethyl)-5,5-difluoro-3b,4,4a,5-tetrahydro-1H-cyclopropa[3,4]cyclopenta[1,2-c]pyrazol-1-yl)-N—((S)-2-(3,5-difluorophenyl)-1-(6-(3,3-dimethylbut-1-yn-1-yl)-3-(5-methyl-3-(methylsulfonamido)-[1,2,4]triazolo[4,3-a]pyridin-8-yl)pyridin-2-yl)ethyl)acetamide], in the data set on HIV-IIIb, the inhibition at 0.2 µM came to 90% and the inhibition at 2 µM is 90%. This compound gave a CC50 at 5 days in data set [1] of 16.8 µM.
As for `CN(C)CC(=O)Nc1nn(C)c2c(-c3ccc(C#CC(C)(C)O)nc3[C@H](Cc3cc(F)cc(F)c3)NC(=O)Cn3nc(C(F)F)c4c3C(F)(F)[C@@H]3C[C@H]43)ccc(Cl)c12` [Compound 99B, N—((S)-1-(3-(4-chloro-3-(2-(dimethylamino)acetamido)-1-methyl-1H-indazol-7-yl)-6-(3-hydroxy-3-methylbut-1-yn-1-yl)pyridin-2-yl)-2-(3,5-difluorophenyl)ethyl)-2-((3b-S,4aR)-3-(difluoromethyl)-5,5-difluoro-3b,4,4a,5-tetrahydro-1H-cyclopropa[3,4]cyclopenta[1,2-c]pyrazol-1-yl)acetamide], in the data set with HIV-IIIb, the inhibition at 0.2 µM amounted to 100% and the inhibition at 2 µM came to 100%. In data set [1], this compound registered a CC50 at 5 days of 6.37 µM.
For the compound `COC(=O)Nc1nn(C)c2c(-c3ccc(C#CC(C)(C)O)nc3[C@H](Cc3cc(F)cc(F)c3)NC(=O)Cn3nc(C(F)F)c4c3C(F)(F)[C@@H]3C[C@H]43)ccc(Cl)c12` [Compound 90D, methyl (4-chloro-7-(2-((S)-1-(2-((3b-S,4aR)-3-(difluoromethyl)-5,5-difluoro-3b,4,4a,5-tetrahydro-1H-cyclopropa[3,4]cyclopenta[1,2-c]pyrazol-1-yl)acetamido)-2-(3,5-difluorophenyl)ethyl)-6-(3-hydroxy-3-methylbut-1-yn-1-yl)pyridin-3-yl)-1-methyl-1H-indazol-3-yl)carbamate], in the data set on HIV-IIIb, the inhibition at 0.2 µM came out at 97% and the inhibition at 2 µM stood at 97%. The compound further displayed a CC50 at 5 days in data set [1] of 7.62 µM.

The term inhibition denotes the drop in the measured response relative to a control, in per cent. In general, CC50 refers to the concentration at which the toxic effect on the cells reaches its halfway point. Read a low CC50 as greater toxicity to the cells.
